Results as given in BigSolDB 2.1.

CC(C)C(=O)Nc1ccc([N+](=O)[O-])c(C(F)(F)F)c1
solubility (mole fraction)
Details	278.15 K	283.15 K	288.15 K	293.15 K	298.15 K	303.15 K	308.15 K	313.15 K	318.15 K	323.15 K
in 1,4-dioxane	–	0.12	0.139	0.16	0.184	0.21	0.239	0.272	0.307	0.338
in acetonitrile	0.0592	0.0749	0.0939	0.115	0.144	0.177	0.217	0.262	0.314	0.375
in ethanol	0.0365	0.0435	0.0522	0.0617	0.0728	0.0858	0.1	0.116	0.136	0.156
in isopropanol	0.0583	0.0664	0.0756	0.0861	0.0979	0.11	0.125	0.14	0.155	0.176
in water	2.41e-07	3.17e-07	4.02e-07	5.23e-07	6.68e-07	8.38e-07	1.07e-06	1.32e-06	1.65e-06	2.06e-06
